Assays:
WT-Integrase = target: T1, WT-Integrase (Human immunodeficiency virus type 1 group M subtype B, UniProt P04585); experiment: InSTANT integrase DNA strand transfer functional assay; assay type: biochemical, HIV; conditions: SPA strand transfer, 15 minutes at 37° C.
T1 construct: assembled PVT SPA beads with WT-Integrase and boitinylated DNA
Method: InSTANT is an integrase DNA strand transfer functional assay used to determine potency of InSTIs, which was carried out as described below. 8 μl of SPA buffer (27.8 mM Hepes, 27.8 mM MgCl2, 111.1 μg/mL BSA, 5.56 mM βME, and 57.1 mM NaCl) containing 5 nM 3H-labeled target DNA (prepared separately) and 10 μl of assembled PVT SPA beads with WT-Integrase and boitinylated DNA (prepared separately) were added to the assay plate which contained 0.4 μl of test compound(s) or positive or negative control compound(s) per well. The assay plate was shaken for 1 minute on HT-91002 1.0 MM shaker and then was sealed and incubated for 15 minutes at 37° C. The assay reaction was quenched by adding 4 μl of 1.25 M EDTA to each well of the assay plate with mixing. After incubating the plate at room temperature for 1 hour, the quenched plate was spun at 200 g for 1 minute and read on TopCount (1 minute per well). Percent inhibition was calculated by [1−(Sample−Min)/(Max−Min)]*100. Compound potency IP or IC50 was determined by a 4-parameter dose response curve analysis.

HIV-1 (NL4-3 strain) = experiment: ViKinG (Viral Kinetics GFP Reporter) assay for inhibition of HIV replication; assay type: cell-based; conditions: Human immunodeficiency virus 1, NL43; MT4-GFP cells infected with HIV-1 NL4-3; RPMI + 10% or 50% NHS (not given); infected cells at 48 h / 24 h
Excerpt: The ViKinG (Viral Kinetics GFP Reporter) assay is an in vitro kinetic assay that employs the MT4-gag-GFP reporter cell line (Wang et al., “Assessment of the susceptibility of mutant HIV-1 to antiviral agents.” J Virological Methods 165:230-37 (2010)) to quantify the number of new cells infected in each round of replication. The purpose of the ViKinG assay is to identify agents that inhibit HIV progression. Briefly, HIV infection results in tat transactivation of the stably expressed HIV LTR promoter to drive gagGFP expression. Thus, an increase in the number of GFP-MT4 cells results following HIV infection.
MT4-GFP cells (250,000 cells/m1) were bulk-infected with HIV-1 (NL4-3 strain) at low multiplicity of infection (MOT) in RPMI+10% FBS for 24 hours. Cells were then washed once in RPMI+10% FBS and resuspended RPMI+10% or 50% normal human serum (NHS). Test compounds were serial-diluted in DMSO on an ECHO® liquid handling platform (Labcyte Corp., Sunnyvale, Calif.), along with a triple drug control (integrase, protease and NNRTI compounds). The infected MT4-GFP cells were added to a 384-well poly-D-lysine coated black plate with clear bottom in which the diluted test compounds were placed. The cells were seeded at 8,000 cells per well and the final DMSO concentration was 0.4%. The infected cells (Green GFP cells) were quantified at both 24 and 48 hours post incubation using Acumen® eX3 (TTP Labtech Ltd., Hertfordshire, United Kingdom). Viral reproductive ratio (R0) was determined using the number of infected cells at 48 hours divided by the number of infected cells at 24 hours. Percent viral growth inhibition was calculated by [1−(R−Rtripledrug)/(RDMSO−Rtripledrug)]*100. Compound potency IP or IC50 was determined by a 4-parameter dose response curve analysis.

SMILES	IC50 (WT-Integrase) [nM]	IC50 (HIV-1 (NL4-3 strain)) [nM]
C=C1CN(C)C(=O)c2c1c(=O)c(O)c1n2CCN(Cc2ccc(F)c(Cl)c2)C1=O [Compound 21, 8-(3-chloro-4-fluorobenzyl)-6-hydroxy-2-methyl-4-methylene-3,4,9,10-tetrahydro-1H-pyrazino[1,2-a][1,7]naphthyridine-1,5,7(2H,8H)-trione]	2	155
O=C1c2c(O)c(=O)c3c(n2CCN1Cc1ccc(F)c(Cl)c1)COC31CCC2CC21 (stereo not drawn) [Compound 13]	8	333
CC(C)c1c(CNC(=O)OC(C)(C)C)n2c(c(O)c1=O)C(=O)N(Cc1ccc(F)c(Cl)c1)CC2 [Compound 31, tert-butyl((2-(3-chloro-4-fluorobenzyl)-9-hydroxy-7-isopropyl-1,8-dioxo-2,3,4,8-tetrahydro-1H-pyrido[1,2-a]pyrazin-6-yl)methyl)carbamate]	42	2610
CC1CCN(C(=O)C(=O)N(C)C)Cc2c1c(=O)c(O)c1n2CCN(Cc2ccc(F)c(Cl)c2)C1=O (stereo not drawn) [Compound 18, 2-(9-(3-chloro-4-fluorobenzyl)-7-hydroxy-5-methyl-6,8-dioxo-4,5,8,9,10,11-hexahydropyrazino[1′,2′:1,6]pyrido[2,3-c]azepin-2(1H,3H,6H)-yl)-N,N-dimethyl-2-oxoacetamide]	20	3660
CCC1COCc2c1c(=O)c(O)c1n2CCN(Cc2ccc(F)c(Cl)c2)C1=O (stereo not drawn) [Compound 7]	13	461
O=C1c2c(O)c(=O)c3c(n2CCN1Cc1ccc(F)c(Cl)c1)COCC=C3 [Compound 2, 9-(3-chloro-4-fluorobenzyl)-7-hydroxy-10,11-dihydro-1H-oxepino[4′,3′:5,6]pyrido[1,2-a]pyrazine-6,8(3H,9H)-dione]	11	76
